# Patent publication US5935983A, “Use of phenylcyclohexylcarboxamides” (Bayer Aktiengesellschaft, priority 1995, dated 1999)
# pIC50: −log10 of the molar value.
# Tested on: smooth muscle cells obtained from the aortas of pigs
# Assay: inhibition of the proliferation of smooth muscle cells (3H-thymidine incorporation)
# Assay type: cell-based, pig
# Settings: Sus scrofa; porcine aortic smooth muscle cells; half-maximal inhibition of the thymidine incorporation produced by 10% FCS; 3H-thymidine added after 16-20 h, further 4 h
# Method: Investigation of the inhibition of the proliferation of smooth muscle cells by the compounds according to the invention
# To determine the antiproliferative action of the compounds, smooth muscle cells are used which are obtained from the aortas of pigs by the media explant technique [R. Ross, J. Cell. Biol. 50, 172, 1971]. The cells are inoculated into suitable culture dishes, as a rule 96-hole plates, and cultured at 37° C. in 5% CO2 for 2-3 days in medium 199 containing 7.5% FCS and 7.5% NCS, 2 mM L-glutamine and 15 mM HEPES, pH 7.4. The cells are then synchronized by serum withdrawal for 2-3 days and then stimulated to growth using serum or other factors. Test compounds are added simultaneously. After 16-20 hours, ^3 H-thymidine is added and after a further 4 hours the incorporation of this substance into the TCA-precipitable DNA of the cells is determined. To determine the IC50 values, the active compound concentration is calculated which, on sequential dilution of the active compound, causes half-maximal inhibition of the thymidine incorporation produced by 10% FCS.
smiles,measurement,value
NC(=O)C(NC(=O)C1CCCCC1c1ccc(Cn2c(C3CC3)nc3ccccc32)cc1)c1ccccc1 (stereo not shown) [Example 16],pIC50,9.55
